# Laboratory results reported in ChEMBL document CHEMBL3885861, “Open TG-GATES”.
# Species on record: Rattus norvegicus
# Experiment: Open TG-GATES - Regimen: Daily Repeat
# Type: toxicity, organism-based, Sprague-Dawley
# Parameters: regimen Daily Repeat, gender Male, age 6 weeks
# Settings: in vivo, po, route gavage; for ALP / ALT / AST / BUN / CRE / DBIL / GLC / IP / K / LDH / Na / RALB / TBIL / TC / TG / TP / gamma-GTP: tissue Plasma; for Bas / Eos / Fbg / Lym / MCH / MCHC / MCV / Mono / Neu / PT / Plat / RBC / Ret / WBC: tissue Blood; for KIDNEY_L / KIDNEY_R / KIDNEY_TOTAL: tissue Kidney
# [1] = 3 mg/kg, […], dose level Low, time 28 day
# [2] = 10 mg/kg, 72 h, dose level Middle, time 3 day
# [3] = 10 mg/kg, […], dose level Middle, time 7 day
# [4] = 10 mg/kg, […], dose level Middle, time 14 day
# [5] = 10 mg/kg, […], dose level Middle, time 28 day
# [6] = 30 mg/kg, 72 h, dose level High, time 3 day
# [7] = 30 mg/kg, […], dose level High, time 7 day
# [8] = 30 mg/kg, […], dose level High, time 14 day
smiles,measurement,setting,value
Cc1cnc(NC(=O)C2=C(O)c3ccccc3S(=O)(=O)N2C)s1 [MELOXICAM],ALP,[1],620 IU/L
same,ALT,[1],33.6 IU/L
same,AST,[1],64.4 IU/L
same,BUN,[1],18.2 mg/dL
same,CRE,[1],0.5 mg/dL
same,DBIL,[1],0.1 mg/dL
same,GLC,[1],235.2 mg/dL
same,IP,[1],7.2 mg/dL
same,K,[1],3.9 meq/L
same,LDH,[1],170.8 IU/L
same,Na,[1],142 meq/L
same,RALB,[1],3.5 g/dL
same,TBIL,[1],0.2 mg/dL
same,TC,[1],71.2 mg/dL
same,TG,[1],121.6 mg/dL
same,TP,[1],5.9 g/dL
same,gamma-GTP,[1],1.2 IU/L
same,TERMINAL_BW,[2],246.9 g
same,Bas,[2],0.8%
same,Eos,[2],0.6%
same,Fbg,[2],248.8 mg/dL
same,Lym,[2],71.4%
same,MCH,[2],21.7 pg
same,MCHC,[2],34.1%
same,MCV,[2],63.6 fL
same,Mono,[2],3.4%
same,Neu,[2],23.4%
same,PT,[2],11.7 s
same,Plat,[2],127 x10_4/uL
same,RBC,[2],635.2 x10_4/ul
same,Ret,[2],6%
same,WBC,[2],135.2 x10_2/uL
same,KIDNEY_L,[2],1.1 g
same,KIDNEY_R,[2],1.1 g
same,KIDNEY_TOTAL,[2],2.3 g
same,ALP,[2],919 IU/L
same,ALT,[2],43.2 IU/L
same,AST,[2],75.4 IU/L
same,CRE,[2],0.4 mg/dL
same,DBIL,[2],0.1 mg/dL
same,IP,[2],7.5 mg/dL
same,K,[2],4.1 meq/L
same,LDH,[2],242.6 IU/L
same,Na,[2],142.2 meq/L
same,RALB,[2],3.5 g/dL
same,TBIL,[2],0.2 mg/dL
same,TC,[2],79 mg/dL
same,TG,[2],129.2 mg/dL
same,TP,[2],5.7 g/dL
same,gamma-GTP,[2],1 IU/L
same,TERMINAL_BW,[3],277.9 g
same,TERMINAL_BW,[4],321.8 g
same,TERMINAL_BW,[5],398.2 g
same,Bas,[3],0.6%
same,Eos,[3],1%
same,Fbg,[3],223.8 mg/dL
same,Lym,[3],73.8%
same,MCH,[3],21.5 pg
same,MCHC,[3],34.5%
same,MCV,[3],62.2 fL
same,Mono,[3],2.8%
same,Neu,[3],21.8%
same,PT,[3],11.9 s
same,RBC,[3],633 x10_4/ul
same,Ret,[3],5.4%
same,WBC,[3],119.8 x10_2/uL
same,Bas,[4],1%
same,Eos,[4],0.8%
same,Fbg,[4],234.2 mg/dL
same,Lym,[4],74.2%
same,MCH,[4],20.3 pg
same,MCHC,[4],33.7%
same,MCV,[4],60 fL
same,Mono,[4],3%
same,Neu,[4],21.2%
same,PT,[4],11.6 s
same,Plat,[4],116.5 x10_4/uL
same,RBC,[4],699.4 x10_4/ul
same,Ret,[4],4.5%
same,WBC,[4],135.2 x10_2/uL
same,Bas,[5],1%
same,Eos,[5],1%
same,Fbg,[5],242.8 mg/dL
same,Lym,[5],73%
same,MCH,[5],19.4 pg
same,MCHC,[5],33.9%
same,MCV,[5],57.2 fL
same,Mono,[5],3.2%
same,Neu,[5],21.4%
same,PT,[5],11.5 s
same,Plat,[5],118.5 x10_4/uL
same,RBC,[5],740.6 x10_4/ul
same,Ret,[5],3.4%
same,WBC,[5],170.5 x10_2/uL
same,KIDNEY_L,[3],1.2 g
same,KIDNEY_R,[3],1.2 g
same,KIDNEY_TOTAL,[3],2.4 g
same,KIDNEY_L,[4],1.4 g
same,KIDNEY_R,[4],1.4 g
same,KIDNEY_TOTAL,[4],2.7 g
same,KIDNEY_L,[5],1.5 g
same,KIDNEY_R,[5],1.5 g
same,KIDNEY_TOTAL,[5],3 g
same,ALP,[3],952.8 IU/L
same,ALT,[3],34.2 IU/L
same,AST,[3],72.6 IU/L
same,CRE,[3],0.5 mg/dL
same,DBIL,[3],0.094 mg/dL
same,IP,[3],7.5 mg/dL
same,K,[3],4.2 meq/L
same,LDH,[3],197.8 IU/L
same,Na,[3],141.4 meq/L
same,RALB,[3],3.4 g/dL
same,TBIL,[3],0.2 mg/dL
same,TC,[3],68.4 mg/dL
same,TG,[3],96.4 mg/dL
same,TP,[3],5.6 g/dL
same,gamma-GTP,[3],3.4 IU/L
same,ALP,[4],873.6 IU/L
same,ALT,[4],38.6 IU/L
same,AST,[4],72.8 IU/L
same,BUN,[4],17.8 mg/dL
same,CRE,[4],0.4 mg/dL
same,DBIL,[4],0.1 mg/dL
same,IP,[4],7.2 mg/dL
same,K,[4],4 meq/L
same,LDH,[4],185.4 IU/L
same,Na,[4],142.6 meq/L
same,RALB,[4],3.5 g/dL
same,TBIL,[4],0.2 mg/dL
same,TC,[4],67.2 mg/dL
same,TG,[4],128.6 mg/dL
same,TP,[4],5.9 g/dL
same,gamma-GTP,[4],1 IU/L
same,ALP,[5],643.2 IU/L
same,ALT,[5],33.2 IU/L
same,AST,[5],66 IU/L
same,BUN,[5],17 mg/dL
same,CRE,[5],0.5 mg/dL
same,DBIL,[5],0.096 mg/dL
same,GLC,[5],244 mg/dL
same,IP,[5],7.3 mg/dL
same,K,[5],3.9 meq/L
same,LDH,[5],176.8 IU/L
same,Na,[5],141.8 meq/L
same,RALB,[5],3.2 g/dL
same,TBIL,[5],0.2 mg/dL
same,TC,[5],65.2 mg/dL
same,TG,[5],121.4 mg/dL
same,TP,[5],5.7 g/dL
same,gamma-GTP,[5],0.8 IU/L
same,TERMINAL_BW,[6],230.2 g
same,Bas,[6],0.6%
same,Eos,[6],0.4%
same,Fbg,[6],378.4 mg/dL
same,Lym,[6],66.6%
same,MCH,[6],21.2 pg
same,MCHC,[6],34.1%
same,MCV,[6],61.9 fL
same,Mono,[6],4.4%
same,Neu,[6],25.6%
same,PT,[6],11.6 s
same,RBC,[6],512.4 x10_4/ul
same,Ret,[6],7.1%
same,WBC,[6],150.3 x10_2/uL
same,KIDNEY_L,[6],1.2 g
same,KIDNEY_R,[6],1.2 g
same,KIDNEY_TOTAL,[6],2.5 g
same,ALP,[6],536 IU/L
same,ALT,[6],26 IU/L
same,AST,[6],52.4 IU/L
same,BUN,[6],17 mg/dL
same,CRE,[6],0.4 mg/dL
same,DBIL,[6],0.072 mg/dL
same,IP,[6],8.2 mg/dL
same,K,[6],4.1 meq/L
same,LDH,[6],165.8 IU/L
same,Na,[6],140.8 meq/L
same,RALB,[6],2.4 g/dL
same,TBIL,[6],0.1 mg/dL
same,TC,[6],71.6 mg/dL
same,TG,[6],110.4 mg/dL
same,TP,[6],4.9 g/dL
same,gamma-GTP,[6],1.2 IU/L
same,TERMINAL_BW,[7],231.5 g
same,TERMINAL_BW,[8],312.2 g
same,Bas,[7],0.6%
same,Eos,[7],0.6%
same,Fbg,[7],379.2 mg/dL
same,Lym,[7],55.6%
same,MCH,[7],20.6 pg
same,MCHC,[7],32.5%
same,MCV,[7],63.4 fL
same,Mono,[7],4.8%
same,Neu,[7],36.6%
same,PT,[7],12 s
same,Plat,[7],251.1 x10_4/uL
same,RBC,[7],387 x10_4/ul
same,Ret,[7],17.2%
same,WBC,[7],145.2 x10_2/uL
same,Bas,[8],1%
same,Eos,[8],0%
same,Fbg,[8],283.5 mg/dL
same,Lym,[8],62%
same,MCH,[8],20.8 pg
same,MCHC,[8],33%
same,MCV,[8],63 fL
same,Mono,[8],4%
same,Neu,[8],32%
same,PT,[8],11.5 s
same,Plat,[8],174 x10_4/uL
same,RBC,[8],636.5 x10_4/ul
same,Ret,[8],8.5%
same,WBC,[8],190.7 x10_2/uL
same,KIDNEY_L,[7],1.1 g
same,KIDNEY_R,[7],1.1 g
same,KIDNEY_TOTAL,[7],2.2 g
same,KIDNEY_L,[8],1.5 g
same,KIDNEY_R,[8],1.5 g
same,KIDNEY_TOTAL,[8],3 g
same,ALP,[7],1681.8 IU/L
same,ALT,[7],18 IU/L
same,AST,[7],74 IU/L
same,BUN,[7],53.4 mg/dL
same,CRE,[7],0.5 mg/dL
same,DBIL,[7],0.1 mg/dL
same,GLC,[7],153 mg/dL
same,IP,[7],9.7 mg/dL
same,K,[7],5.8 meq/L
same,LDH,[7],221.2 IU/L
same,Na,[7],136 meq/L
same,RALB,[7],2.1 g/dL
same,TBIL,[7],0.2 mg/dL
same,TC,[7],66 mg/dL
same,TG,[7],111.4 mg/dL
same,TP,[7],5.1 g/dL
same,gamma-GTP,[7],7.4 IU/L
same,ALP,[8],580.5 IU/L
same,ALT,[8],32.5 IU/L
same,AST,[8],67 IU/L
same,BUN,[8],16 mg/dL
same,CRE,[8],0.4 mg/dL
same,DBIL,[8],0.095 mg/dL
same,IP,[8],7.5 mg/dL
same,K,[8],4.2 meq/L
same,LDH,[8],145.5 IU/L
same,Na,[8],142 meq/L
same,RALB,[8],3 g/dL
same,TBIL,[8],0.2 mg/dL
same,TC,[8],70 mg/dL
same,TG,[8],139.5 mg/dL
same,TP,[8],5.5 g/dL
same,gamma-GTP,[8],1 IU/L
